Columns and labels:
Hep3B cells = assay: Hep3B cell proliferation inhibition test (CellTiter-Glo); format: cell-based; details: Homo sapiens, 72 h, CTG
Experimental: Hep3B Cell Proliferation Inhibition Test
The influence of the compound according to the present invention on Hep3B cell proliferation was evaluated by a luminescence cell viability test.
(§1) The experimental method is summarized as follows:
A CellTilter-Glo (CTG) assay kit was used to detect an indicator ATP of active cellular metabolism by means of a unique stable luciferase, and the luminous signal produced in the test was in direct proportion to the count of active cells in the medium, thereby to detect the cell proliferation of Hep3B.
A CellTilter-Glo agent (Promega, G7572) was comprised of a CellTilter-Glo lyophilized powder and a CellTilter-Glo buffer, and the lyophilized powder was dissolved into the buffer in use.
Hep3B cells (ATCC, HB-8064) (cell source: Shanghai Academy of Life Sciences, Chinese Academy of Sciences) were cultured in a DMEM complete medium (Thermofisher, 11995073) containing a 10% FBS (GBICO, 10099-141) and 100 units/ml mycillin mixed solution (Thermofisher, 15140122). When the cells coverage reached 80-90% in the culture vessel, after the cells were digested and blown about with 0.25% pancreatin (containing EDTA) (Thermofisher, 25200056), they were planted in a white 384 well plate (Thermofisher, 164610), with 1000 cells in each well (27 μl of a DMEM complete medium), and then the 384 well plate was placed into an incubator at 37° C. and 5% CO2 and cultured overnight (18-20 h). The compound was dissolved and diluted in 100% DMSO to 100 μM, then 4-fold-series diluted with DMSO to a minimum concentration of 0.0061 μM, and each concentration point was 50-fold diluted with the FBS-free DMEM medium. If the IC50 value of the compound was very low, the initial concentration of the compound could be reduced. […] This 384 well plate was placed into an incubator at 37° C. and 5% CO2 for further culture, taken out after 72 h, and stood at room temperature for 30 min. The CTG agent was also taken out and balanced to room temperature. 15 μl of the CTG agent was added into each well, and placed onto a shaker to be gently shaken for 3 min to ensure sufficient cell lysis. After 10 min of standing to allow the luminescence signal to be stable, the luminescence signal was read with EnVision (Perkin Elmer).
The inhibition percentage of the compound against Hep3B cell proliferation could be calculated with the following formula: Inhibition percentage=100−100*(signalcompound−signalnegative control)/(signalpositive control−signalnegative control)
The IC50 value of the compound was calculated by the following formula, from 8 concentration points, with XLfit (ID Business Solutions Ltd., UK): Y=Bottom+(Top−Bottom)/(1+10^((Log IC50−X)*slope factor))
Where, Y is the inhibition percentage, Bottom is the bottom plateau of the curve (the bottom plateau of the S-type curve), Top is the top plateau of the curve (the top plateau of the S-type curve), and X is the log value of the compound concentration to be measured.

[1] = target: human recombinant FGFR3 catalytic structural domain protein (Homo sapiens (Human), UniProt P22607); assay: FGFR3 activity inhibition test (HTRF kinase assay); format: biochemical; details: 90 μM ATP
Chain of human recombinant FGFR3 catalytic structural domain protein (P22607 399-806): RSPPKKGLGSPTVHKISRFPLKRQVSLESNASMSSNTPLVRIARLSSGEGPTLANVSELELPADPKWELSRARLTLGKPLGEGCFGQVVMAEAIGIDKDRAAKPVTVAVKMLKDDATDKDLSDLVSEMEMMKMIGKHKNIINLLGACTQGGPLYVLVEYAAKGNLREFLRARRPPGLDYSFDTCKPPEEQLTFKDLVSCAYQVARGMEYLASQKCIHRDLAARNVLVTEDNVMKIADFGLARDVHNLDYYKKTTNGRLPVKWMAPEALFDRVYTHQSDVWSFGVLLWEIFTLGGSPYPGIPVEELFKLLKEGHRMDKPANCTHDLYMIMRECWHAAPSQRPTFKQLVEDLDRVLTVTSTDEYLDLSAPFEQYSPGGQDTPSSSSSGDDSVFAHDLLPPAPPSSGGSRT
Experimental: FGFR3 Activity Inhibition Test
The influence of the compound according to the present invention on the activity of fibroblast growth factor receptor 3 (FGFR3) was evaluated by an in vitro kinase assay experiment.
as §1
The in vitro activity of FGFR3 was determined by assaying the phosphorylation level of the substrate in the kinase reaction, by means of an HTRF kinase assay kit. The reaction buffer comprised the following components: 5-fold diluted Enzymatic buffer/kinase 5× (Cisbio, Catalog number 62EZBFDD) (main ingredient: 50 mM HEPES, pH 7.0), 5 mM MgCl2, 1 mM DTT; the human recombinant FGFR3 catalytic structural domain protein (amino acids 399-806) was commercially available from Sino Biological Inc., diluted with the reaction buffer to a 0.3 ng/μL kinase solution; the substrate reaction solution comprised a biotin labeled tyrosine kinase substrate diluted with the reaction buffer to 1000 nM (Cisbio, catalog number 62TK0PEC), and 90 μM ATP, and the assay solution comprised an Eu^3+ labeled cage-shaped antibody (Cisbio, Catalog number 61T66KLB) diluted with the assay buffer (Cisbio, Catalog number 62SDBRDF) to 0.125 ng/μL, and 62.5 nM streptavidin labeled XL665 (Cisbio, Catalog number 610SAXLB).
The compound was dissolved and diluted in 100% DMSO to 100 μM, then 4-fold-series diluted with DMSO to a minimum concentration of 0.0061 μM, and each concentration point was then 40-fold diluted with the reaction buffer. If the IC50 value of the compound was very low, the initial concentration of the compound could be reduced.
4 μL of a compound solution and 2 μL of an FGFR3 kinase solution were added into a 384 well assay plate (Thermo, Catalog number 264706), mixed uniformly and then incubated for 15 min at room temperature; subsequently, 4 μL of the substrate reaction solution was added therein, and the reaction mixture was incubated for 60 min at room temperature; and then 10 μL of an assay solution of an equal volume to the reaction was added therein and mixed uniformly, followed by placement at room temperature. After 60 min, the enzyme reaction was terminated by EDTA in the assay solution, and the phosphorylated products were identified by both the Eu^3+ labeled cage-shaped antibody (donor) and the streptavidin labeled XL665 antibody (receptor) at the same time. After the excitation with laser, the donors and receptors that were close to each other experienced energy resonance transfer, and the energy transferred from the donor (620 nm) to the receptor (665 nm) could be detected with Envision. The ratio of 665/620 is in positive correlation to the phosphorylation degree of the substrate, thereby to detect the FGFR3 kinase activity. […] The inhibition percentage of the compound against […] activity could be calculated with the following formula: Inhibition percentage=100−100*(signalcompound−signalnegative control)/(signalpositive control−signalnegative control)
The IC50 value of the compound was calculated by the following formula, from 10 concentration points, with XLfit (ID Business Solutions Ltd., UK): Y=Bottom+(Top−Bottom)/(1+10^((Log IC50−X)*slope factor)) Where, Y is the inhibition percentage, Bottom is the bottom plateau of the curve (the bottom plateau of the S-type curve), Top is the top plateau of the curve (the top plateau of the S-type curve), and X is the log value of the compound concentration to be measured.

COC[C@@H](C)Oc1cc(NC(=O)N(C)c2ccc(CN3CCOCC3=O)c(C=O)n2)ncc1C#N [Compound 14, (R)-3-(5-cyano-4-((1-methoxyprop-2-yl)oxo)pyrid-2-yl)-1-(6-formyl-5-((3-carbonylmorpholino)methyl)pyrid-2-yl)-1-methylurea]
IC50 (Hep3B cells): < 0.05 µM | IC50 [1]: > 1 µM

— patent US10590109B2, “Heterocyclic compounds used as FGFR inhibitors” (Nanjing InnoCare Pharma Tech Co., Ltd., priority 2016, dated 2020)
